Activity calls are given as the source filed them.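 The calls were made as follows: active = compounds giving half or more protection of infected cells from virus-caused growth loss, again on retest; inactive = the rest.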 Where a SMILES comes first, the peptide text is derived from it. [ ]: non-standard residue; d: D form. The star is where a group is joined. Iva = CC[C](C)(N)C(=O)O; hSer = N[CH](CCO)C(=O)O; Boc = CC(C)(C)OC(=O)*; X8 = C1CCC(=NO*)C1
System: CEM cells HIV-1 protection, formazan growth assay
Assay: NCI AIDS Antiviral Assay
Details: for IC50: measured here: growth of uninfected CEM cells
Outline: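 Human CEM cells, uninfected and HIV-1-infected, received five drug concentrations, and growth was read by soluble formazan assay. Compounds giving at least 50% protection were retested; reproducible 100% protection defined confirmed active.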

SMILES	EC50 [µM]	IC50 [µM]	outcome
CC(=O)SCC1CC[C@]2(C)C3CC[C@]4(C)C(C(C)CCC(=O)O)CCC4[C@@H]3CC[C@@H]2C1 (stereo partly specified)	> 5.89	> 5.89	
Cn1c(-c2ccccc2)cc(-c2ccc3c(c2)OCO3)c1-c1ccsc1	> 200	> 200	
CC12CCC3c4cc(Br)c(O)c(Br)c4CCC3C1CCC2O (stereo unspecified)	> 200	6.76	
O=C1Cc2c([nH]c3ccc(Cl)cc23)-c2ccccc2N1	> 200	17.4	
C/C=C(/C)C(=O)O[C@H]1[C@H](O)CC(c2ccc3c(c2O)C(O)=C2C(=O)C4(OC)C(O)=C(C(N)=O)C(=O)[C@H](CC(=O)c5ccccc5O)C4CC2[C@@]3(C)OC)O[C@@H]1C (stereo partly specified)	> 2	0.000631	
CCC/C(Cl)=N\OC(=O)Nc1ccc(OC(F)(F)F)cc1	> 20	5.37	
Nc1ncnc2c1ncn2C1OC2CSCCC2(O)C1O (stereo unspecified)	> 200	> 200	
O=C1CC(c2ccco2)NC(=O)N1CCCl (stereo unspecified)	> 200	> 200	
CCC(C)(NC(=O)C(C)NC(=O)OC(C)(C)C)C(=O)NC(C)C(=O)NC(C)(CC)C(=O)ON=C1CCCC1 (stereo unspecified) (Boc-A[Iva]A[Iva]-X8; configuration not given here)	> 200	83.2	
COCCC(NC(=O)C(CC(C)C)NC(=O)OC(C)(C)C)C(=O)OC (stereo not drawn) (Boc-Leu-[hSer](Me)-OMe; configuration not given here)	> 200	26.9	
COc1cc([C@@H]2c3cc4c(c(O)c3C[C@H]3COC(=O)[C@@H]32)OCO4)cc(OC)c1OC	> 0.02	0.00309	
CCc1cn(C2CC(CO)C(CO)S2)c(=O)[nH]c1=O (stereo unspecified)	> 200	> 200	
CN1C/C(=C\c2cccs2)C2=NN(c3ccccc3)C(c3cccs3)C2C1 (stereo unspecified)	> 200	10.7	
CCCCCCC(C)S(=O)(=O)O (stereo unspecified)	> 200	> 200	
COc1ccc(N2C(=O)C3C=CC(n4[nH]c(=O)n(Cc5ccccc5)c4=O)CC3C2=O)cc1 (stereo unspecified)	> 407	209	
Clc1ccccc1C1=NN(c2ccccc2)C2c3cc(Br)ccc3OCC12 (stereo unspecified)	> 81.3	> 81.3	
CC(CC/C=C/CO)C1CC(OS(=O)(=O)O)C2(O)C1(C)CCC1C3CCC(O)C(O)C3C(O)CC12O (stereo unspecified)			inactive

SMILES	EC50 [µM]	IC50 [µM]	outcome
COCCOCc1nc(C#N)c(N)o1			inactive
CC(C)(C)c1ccc(OC(=O)Nc2ccc(O)c(C(=O)O)c2)cc1	> 200	> 200	
Cc1cc(C)c2c(c1)NP(=S)(c1ccccc1)N2 (stereo unspecified)	> 200	> 200	
O=C(O)CN(CC(=O)O)C(C(=O)O)c1ccccc1 (stereo unspecified)	> 200	> 200	
CC1=CC2c3c(O)cc(-c4cc5ccc(O)cc5o4)cc3OC3(c4ccc(O)cc4O)Oc4cc(O)ccc4[C@H](C1)C23 (stereo partly specified)	> 22.9	2.04	
CCc1cccc(CC)c1N1C(=O)C2=C(SCCCS2)C1=O	> 44.7	24	
CNS(=O)(=O)NNS(=O)(=O)c1ccc(OC)cc1	> 617	324	
CC1CCC2(CC1)CC(=O)N(N1CCCCC1)C2=O (stereo unspecified)	> 200	> 200	
COc1ccc2c(c1)-c1oc3ccccc3c(=O)c1CO2	> 200	32.4	
CCOc1ccc(/C=N/NC(=O)C(=O)N/N=C/c2ccc(OCC)c(OCC)c2)cc1OCC	> 200	> 200	
COC(=O)N(C)C(C#N)CCc1ccccc1 (stereo unspecified)	> 15.5	> 15.5	
N#Cc1c(N2CCCC2)nsc1Nc1ccccc1	> 200	> 200	
O=C(c1cccnc1)c1cc(-c2ccccn2)c(=O)n2ccccc12	> 200	> 200	
NC(=O)C1=Cc2cccn2-c2ccccc2S1	> 123	56.2	
[N-]=[N+]=NC1C(O)C(O)C(O)C(O)C1O (stereo unspecified)	> 603	> 603	
Cc1ccc(S(=O)(=O)OC2C3CC4C(=O)OC2C4C3)cc1 (stereo unspecified)	126	> 200	
COc1ccc2c3csc4ccccc4c-3nc2c1	> 200	0.427	
